# Biological target: Recombinant human IDO (Homo sapiens, UniProt P14902)
# Assay: Bridge-IT tryptophan fluorescence assay of human IDO-1 inhibition
# Format: biochemical
# Settings: recombinant human IDO 7.5 nM, L-tryptophan
# Protocol: Measurement of human IDO-1 inhibition is performed in 384 well format using the Bridge-IT® tryptophan Fluorescence Assay (Mediomics, LLC, St. Louis, Mo., U.S.A.).
# The reaction is initiated by the addition of L-Tryptophan (Sigma) at a final concentration of 100 μM in assay buffer. After 90 minutes of incubation at 37° C., the reaction is stopped by transferring 1 μl of the reaction mixture to 9 μl of Bridge-IT assay solution A. After 30 min of incubation at 30° C., the fluorescence intensity was measured at λex=485 nm and λem=665 nm using Perkin Elmer Envision® Multilabel Reader.
# Measurement of human IDO-1 inhibition was performed in 384-well format using the BRIDGE-IT® tryptophan Fluorescence Assay (Mediomics, LLC, St. Louis, Mo., U.S.A.). […] After 30 minutes of pre-incubation at 25° C., the reaction was initiated by the addition of L-Tryptophan (Sigma) at a final concentration of 50 μM in assay buffer. After 60 minutes of incubation at 25° C., the reaction is stopped by transferring 1 μl of the reaction mixture to 9 μl of Bridge-IT assay solution A. After 30 min of incubation at 30° C., the fluorescence intensity was measured at λex=485 nm and λem=665 nm using Perkin Elmer ENVISION® Multilabel Reader.
# Recombinant human IDO, sequence (P14902 whole entry): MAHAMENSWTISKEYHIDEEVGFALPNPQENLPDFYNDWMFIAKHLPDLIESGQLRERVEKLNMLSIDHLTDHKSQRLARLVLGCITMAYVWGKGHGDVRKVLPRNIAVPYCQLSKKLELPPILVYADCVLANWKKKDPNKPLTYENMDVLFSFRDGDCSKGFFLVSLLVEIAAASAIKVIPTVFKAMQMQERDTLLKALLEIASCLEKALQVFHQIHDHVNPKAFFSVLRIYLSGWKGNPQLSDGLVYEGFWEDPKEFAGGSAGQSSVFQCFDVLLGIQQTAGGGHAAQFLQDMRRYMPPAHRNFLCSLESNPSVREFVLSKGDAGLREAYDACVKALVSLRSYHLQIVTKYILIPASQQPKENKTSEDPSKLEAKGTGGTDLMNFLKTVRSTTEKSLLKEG
row,SMILES,IC50
1,"FC1(CCC2c3cnccc3-c3cncn32)CCCCC1 (single isomer, unassigned) [Compound 10a, 7-[2-(1-fluorocyclohexyl)ethyl]-4,6,10-triazatricyclo[6.4.0.0^[2,6]]dodeca-1(8),2,4,9,11-pentaene]",> 1000 nM
2,"OC1CCC(F)(CCC2c3c(F)ccc(F)c3-c3cncn32)CC1 (single isomer, unassigned) [Compound 38d, 4-(2-(6,9-difluoro-5H-imidazo[5,1-a]isoindol-5-yl)ethyl)-4-fluorocyclohexanol]",< 100 nM
3,"OC(CC1c2ncccc2-c2cncn21)C1CCOCC1 (single isomer, unassigned) [Compound 92b, 1-(oxan-4-yl)-2-[4,6,9-triazatricyclo[6.4.0.0^[2,6]]dodeca-1(8),2,4,9,11-pentaen-7-yl]ethan-1-ol]",> 1000 nM
4,"OC(CC1c2c(Cl)cccc2-c2cncn21)C1(F)CCCCC1 (single isomer, unassigned) [Compound 83a, 2-[6-chloro-5H-imidazo[4,3-a]isoindol-5-yl]-1-(1-fluorocyclohexyl)ethan-1-ol]",> 1000 nM
5,"OC(CC1c2c(Cl)cccc2-c2cncn21)C1(F)CCCCC1 (single isomer, unassigned) [Compound 83d, 2-[6-chloro-5H-imidazo[4,3-a]isoindol-5-yl]-1-(1-fluorocyclohexyl)ethan-1-ol]",< 100 nM
6,"OC1CCC(F)(CCC2c3c(Cl)cccc3-c3cncn32)CC1 (single isomer, unassigned) [Compound 71a, 4-[2-[6-chloro-5H-imidazo[4,3-a]isoindol-5-yl]ethyl]-4-fluorocyclohexan-1-ol]",100 to 1000 nM
7,"FC(CC1c2ncccc2-c2cncn21)C1CCCCC1 (single isomer, unassigned) [Compound 97c, 7-[2-cyclohexyl-2-fluoroethyl]-4,6,9-triazatricyclo[6.4.0.0^[2,6]]dodeca-1(8),2,4,9,11-pentaene]",100 to 1000 nM
8,"OC(CC1c2ncccc2-c2cncn21)C1CCC(C2(O)CC2)CC1 (single isomer, unassigned) [Compound 117a, 1-[4-[1-hydroxy-2-[4,6,9-triazatricyclo[6.4.0.0^[2,6]]dodeca-1(8),2,4,9,11-pentaen-7-yl]ethyl]cyclohexyl]cyclopropan-1-ol]",> 1000 nM
9,"NC(=O)CC1CCC(F)(CCC2c3c(F)cccc3-c3cncn32)CC1 (single isomer, unassigned) [Compound 116d, 2-[4-Fluoro-4-[2-[6-fluoro-5H-imidazo[4,3-a]isoindol-5-yl]ethyl]cyclohexyl]acetamide]",< 100 nM
10,"OC1CCC(F)(CCC2c3cccc(F)c3-c3cncn32)CC1 (single isomer, unassigned) [Compound 35c, 4-fluoro-4-(2-(9-fluoro-5H-imidazo[5,1-a]isoindol-5-yl)ethyl)cyclohexanol]",< 100 nM
11,"OC(CC1c2ncccc2-c2cncn21)c1ccccc1 (stereo not drawn) [Compound 12b, 1-Phenyl-2-[4,6,9-triazatricyclo[6.4.0.0^[2,6]]dodeca-1(8),2,4,9,11-pentaen-7-yl]ethan-1-ol]",> 1000 nM
12,"COc1ccc2c(n1)C(CCC1(F)CCC(F)(F)CC1)n1cncc1-2 (single isomer, unassigned) [Compound 34b, 10-methoxy-7-[2-(1,4,4-trifluorocyclohexyl)ethyl]-4,6,9-triazatricyclo[6.4.0.0^[2,6]]dodeca-1(8),2,4,9,11-pentaene]",> 1000 nM
13,"COc1ccc2c(n1)C(CC(N)C1CCC(F)(F)CC1)n1cncc1-2 (single isomer, unassigned) [Compound 120c, 1-(4,4-difluorocyclohexyl)-2-[10-methoxy-4,6,9-triazatricyclo[6.4.0.0^[2,6]]dodeca-1(8),2,4,9,11-pentaen-7-yl]ethan-1-amine]",100 to 1000 nM
14,"OC(CC1c2ncccc2-c2cncn21)C1CCC(F)(F)CC1 (single isomer, unassigned) [Compound 22c, 1-(4,4-difluorocyclohexyl)-2-[4,6,9-triazatricyclo[6.4.0.0^[2,6]]dodeca-1(8),2,4,9,11-pentaen-7-yl]ethan-1-ol]",> 1000 nM
15,"OC(CC1c2nc(OC3CC3)ccc2-c2cncn21)C1CCC(F)(F)CC1 (single isomer, unassigned) [Compound 69d, 2-[10-cyclopropoxy-4,6,9-triazatricyclo[6.4.0.0^[2,6]]dodeca-1(8),2,4,9,11-pentaen-7-yl]-1-(4,4-difluorocyclohexyl)ethan-1-ol]",> 1000 nM
16,"c1cnc2c(c1)-c1cncn1C2CCC1CCCCC1 (stereo not drawn) [Compound 50, 7-(2-cyclohexylethyl)-4,6,9-triazatricyclo[6.4.0.0^[2,6]]dodeca-1(8),2,4,9,11-pentaene]",100 to 1000 nM
17,"COc1cc2c(cn1)-c1cncn1C2CC(O)C1CCCCC1 (stereo not drawn) [Compound 11b, 1-cyclohexyl-2-[10-methoxy-4,6,11-triazatricyclo[6.4.0.0^[2,6]]dodeca-1(8),2,4,9,11-pentaen-7-yl]ethan-1-ol]",> 1000 nM

row,SMILES,IC50
1,"Oc1cccc2c1-c1cncn1C2CCC1(F)CCCCC1 (single isomer, unassigned) [Compound 43b, 5-(2-(1-fluorocyclohexyl)ethyl)-5H-imidazo[5,1-a]isoindol-9-ol]",< 100 nM
2,"OC1CCC(F)(CCC2c3ccccc3-c3cncn32)CC1 (single isomer, unassigned) [Compound 13b, 4-(2-(5H-imidazo[5,1-a]isoindol-5-yl)ethyl)-4-fluorocyclohexanol]",< 100 nM
3,"OC1CCC(C(F)(F)CC2c3c(F)ccc(F)c3-c3cncn32)CC1 (mixture of isomers) [Compound 78a, 4-(2-[6,9-difluoro-5H-imidazo[4,3-a]isoindol-5-yl]-1,1-difluoroethyl)cyclohexan-1-ol]",100 to 1000 nM
4,"NC(=O)C1CCC(F)(CCC2c3c(Cl)cccc3-c3cncn32)CC1 (single isomer, unassigned) [Compound 99c, 4-[2-[6-chloro-5H-imidazo[4,3-a]isoindol-5-yl]ethyl]-4-fluorocyclohexane-1-carboxamide]",< 100 nM
5,"CC1(C)CCC(F)(CCC2c3c(F)cccc3-c3cncn32)CC1 (single isomer, unassigned) [Compound 23a, 6-fluoro-5-(2-(1-fluoro-4,4-dimethylcyclohexyl)ethyl)-5H-imidazo[5,1-a]isoindole]",> 1000 nM
6,"FC1(CCC2c3c(Cl)cccc3-c3cncn32)CCOCC1 (single isomer, unassigned) [Compound 96b, 6-chloro-5-[2-(4-fluorooxan-4-yl)ethyl]-5H-imidazo[4,3-a]isoindole]",100 to 1000 nM
7,"OC(CC1c2cnccc2-c2cncn21)C1CCCCC1 (stereo not drawn) [Compound 9a, 1-Cyclohexyl-2-[4,6,10-triazatricyclo[6.4.0.0^[2,6]]dodeca-1(8),2,4,9,11-pentaen-7-yl]ethan-1-ol]",> 1000 nM
8,"OC1(C2CCC(F)(CCC3c4ccccc4-c4cncn43)CC2)CC1 (single isomer, unassigned) [Compound 60b, 1-[4-fluoro-4-[2-[5H-imidazo[4,3-a]isoindol-5-yl]ethyl]cyclohexyl]cyclopropan-1-ol]",> 1000 nM
9,"FC1(F)CCC(F)(CCC2c3c(Cl)cccc3-c3cncn32)CC1 (single isomer, unassigned) [Compound 72b, 6-chloro-5-[2-(1,4,4-trifluorocyclohexyl)ethyl]-5H-imidazo[4,3-a]isoindole]",100 to 1000 nM
10,"FC1(CCC2c3ncccc3-c3cncn32)CCOCC1 (single isomer, unassigned) [Compound 93b, 7-[2-(4-fluorooxan-4-yl)ethyl]-4,6,9-triazatricyclo[6.4.0.0^[2,6]]dodeca-1(8),2,4,9,11-pentaene]",> 1000 nM
11,"FC1(F)CCC(CCC2c3ncccc3-c3cncn32)CC1 (stereo not drawn) [Compound 49, 7-[2-(4,4-difluorocyclohexyl)ethyl]-4,6,9-triazatricyclo[6.4.0.0^[2,6]]dodeca-1(8),2,4,9,11-pentaene]",100 to 1000 nM
12,"OC(CC1c2nc(Cl)ccc2-c2cncn21)C1CCCCC1 (single isomer, unassigned) [Compound 55c, 2-[10-chloro-4,6,9-triazatricyclo[6.4.0.0^[2,6]]dodeca-1(8),2,4,9,11-pentaen-7-yl]-1-cyclohexylethan-1-ol]",> 1000 nM
13,"OC(CC1CCCCC1)CC1c2ncccc2-c2cncn21 (single isomer, unassigned) [Compound 62d, 1-cyclohexyl-3-[4,6,9-triazatricyclo[6.4.0.0^[2,6]]dodeca-1(8),2,4,9,11-pentaen-7-yl]propan-2-ol]",> 1000 nM
14,"OC(CC1c2nc(Cl)ccc2-c2cncn21)C1CCCCC1 (single isomer, unassigned) [Compound 55d, 2-[10-chloro-4,6,9-triazatricyclo[6.4.0.0^[2,6]]dodeca-1(8),2,4,9,11-pentaen-7-yl]-1-cyclohexylethan-1-ol]",100 to 1000 nM
15,"COc1ccc(F)c2c1-c1cncn1C2CCC1(F)CCCCC1 (single isomer, unassigned) [Compound 45a, 6-fluoro-5-(2-(1-fluorocyclohexyl)ethyl)-9-methoxy-5H-imidazo[5,1-a]isoindole]",> 1000 nM
16,"FC1(CCC2c3c(Cl)cccc3-c3cncn32)CCC2(CC1)CC2 (single isomer, unassigned) [Compound 91b, 6-chloro-5-(2-[6-fluorospiro[2.5]octan-6-yl]ethyl)-5H-imidazo[4,3-a]isoindole]",> 1000 nM
